Test in all cases: inhibition of tumour cell growth, NCI panel, 48 h
The subject of experiment [1] is NCI-H460.
Experiment [2] deals with CCRF-CEM.
In experiment [3] the test system is OVCAR-8.
The subject of experiment [4] is M14.
Experiment [5] deals with SR.
The test system of experiment [6] is A498.
For experiment [7], the system named is HCT-116.
Experiment [8] concerns MOLT-4.
For experiment [9], the system named is LOX IMVI.
The subject of experiment [10] is LXFL 529.
The subject of experiment [11] is Malme-3M.
For experiment [12], the system named is OVCAR-3.
In experiment [13] the test system is SNB-75.
For experiment [14], the system named is DU-145.
For experiment [15], the system named is SK-OV-3.
Experiment [16] deals with K562.
For experiment [17], the system named is COLO 205.
In experiment [18] the test system is SK-MEL-28.
The subject of experiment [19] is MCF7.
Experiment [20] relates to NCI-H23.

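Test compounds were applied to cells in 96-well plates for 48 hours at 5 doses. Abbreviation: GI50, concentration required for 50% inhibition of growth.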 Calls of active or inactive are those of the source. Rule as the data show it: active = GI50 up to about 1.1 µM and inactive = higher.

On to `CCCCCCCCCCCCCC(=O)OC(/C=C/C(C)C)C(O)C(O)C(OC)C(=O)NC1CCCCNC1=O` (stereo not given), for which the GI50 is 90.6 nM (active) in [1]; 587 nM (active) in experiment [2]; 1020 nM (active) in [3]; 655 nM (active) in experiment [4]; 97 nM (active) in [5]; 5210 nM (inactive) in experiment [6]. Besides, the GI50 is 242 nM (active) in [7]; 570 nM (active) in [8]; 408 nM (active) in [9]; 1390 nM (inactive) in experiment [10]; 2020 nM (inactive) in experiment [11]; 1810 nM (inactive) in experiment [12]. The GI50 in experiment [13] was 2050 nM (inactive); in [14], > 10000 nM (inactive); in [15], 2540 nM (inactive); in experiment [16], 627 nM (active); in [17], 299 nM (active); in experiment [18] it was 1610 nM (inactive). The GI50 was 693 nM (active) in experiment [19] and 1200 nM (inactive) in [20].

These data come from ChEMBL document CHEMBL1201862, “PubChem BioAssay data set” (2004).
